From patent publication US20170198006A1, “PRMT5 INHIBITORS AND USES THEREOF” (Epizyme, Inc., priority 2014, published 2017) come the findings set out here.

pIC50: −log10 of the molar value. Bounds are passed on as bounds.

In this assay the target is T1, PRMT5/MEP50 (Homo sapiens, UniProt O14744).
T1 construct: Flag-PRMT5; made in house; host or cells: Spodoptera frugiperda (SF9), baculovirus
T1 sequence (O14744 with tags, fused parts or gaps): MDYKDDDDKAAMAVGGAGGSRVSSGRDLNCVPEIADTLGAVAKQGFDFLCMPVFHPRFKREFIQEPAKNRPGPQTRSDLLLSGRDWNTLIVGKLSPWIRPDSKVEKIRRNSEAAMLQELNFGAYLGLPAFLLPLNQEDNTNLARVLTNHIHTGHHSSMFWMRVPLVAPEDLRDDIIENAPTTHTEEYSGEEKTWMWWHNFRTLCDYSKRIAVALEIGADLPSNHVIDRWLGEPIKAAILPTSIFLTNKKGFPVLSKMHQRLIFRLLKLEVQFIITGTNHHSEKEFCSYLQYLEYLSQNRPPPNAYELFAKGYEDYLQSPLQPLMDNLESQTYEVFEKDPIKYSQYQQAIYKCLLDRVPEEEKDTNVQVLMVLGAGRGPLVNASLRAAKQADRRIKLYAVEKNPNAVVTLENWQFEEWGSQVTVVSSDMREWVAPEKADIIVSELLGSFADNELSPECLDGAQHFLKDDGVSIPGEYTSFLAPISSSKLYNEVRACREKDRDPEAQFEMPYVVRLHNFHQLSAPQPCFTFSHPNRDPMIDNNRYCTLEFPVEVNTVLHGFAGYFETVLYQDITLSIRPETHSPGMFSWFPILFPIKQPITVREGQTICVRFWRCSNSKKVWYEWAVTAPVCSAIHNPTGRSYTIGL
T1 sequence (Q9BQA1 with tags, fused parts or gaps partner limits assumed): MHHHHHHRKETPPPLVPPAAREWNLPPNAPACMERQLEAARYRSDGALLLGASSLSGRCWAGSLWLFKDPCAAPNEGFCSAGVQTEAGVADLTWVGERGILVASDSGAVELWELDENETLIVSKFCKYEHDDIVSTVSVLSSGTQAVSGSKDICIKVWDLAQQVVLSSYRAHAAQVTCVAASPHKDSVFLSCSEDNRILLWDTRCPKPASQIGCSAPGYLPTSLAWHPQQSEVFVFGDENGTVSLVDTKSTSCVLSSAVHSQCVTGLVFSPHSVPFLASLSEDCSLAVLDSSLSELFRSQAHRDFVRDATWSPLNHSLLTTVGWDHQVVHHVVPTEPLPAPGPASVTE
Briefly: PRMT5 Biochemical Assay (PRMT5/MEP50 enzyme assay on histone H4 peptide substrate, 3H-SAM Flashplate). Particulars: PRMT5 biochemical assay; read-out: Biochemical IC50. The source says: S-adenosylmethionine (SAM), S-adenosylhomocysteine (SAH), bicine, KCl, Tween20, dimethylsulfoxide (DMSO), bovine skin gelatin (BSG), and Tris(2-carboxyethyl)phosphine hydrochloride solution (TCEP) were purchased from Sigma-Aldrich at the highest level of purity possible. ^3H-SAM was purchase from American Radiolabeled Chemicals with a specific activity of 80 Ci/mmol. 384-well streptavidin Flashplates were purchased from PerkinElmer.
Peptide representative of human histone H4 residues 1-15 was synthesized with a C-terminal linker-affinity tag motif and a C-terminal amide cap by 21st Century Biochemicals.
The amplified genes were sublconed into pENTR/D/TEV (Life Technologies) and subsequently transferred by Gateway™ attL×attR recombination to pDEST8 baculvirus expression vector (Life Technologies).
Protein over-expression was accomplished by infecting exponentially growing Spodoptera frugiperda (SF9) cell culture at 1.2×10^6 cell/ml with a 5000 fold dilution of BIIC stock. Infections were carried out at 27° C. for 72 hours, harvested by centrifugation, and stored at −80° C. for purification.
Flag-PRMT5/6His-MeP50 was eluted with 300 mM Imidazole in the same buffer.
General Procedure for PRMT5/MEP50 Enzyme Assays on Peptide Substrates.
The assays were all performed in a buffer consisting of 20 mM Bicine (pH=7.6), 1 mM TCEP, 0.005% BSG, and 0.002% Tween20, prepared on the day of use. […] DMSO (1 ul) was added to Columns 11, 12, 23, 24, rows A-H for the maximum signal control and 1 ul of SAH, a known product and inhibitor of PRMT5/MEP50, was added to columns 11, 12, 23, 24, rows I-P for the minimum signal control. A cocktail (40 ul) containing the PRMT5/MEP50 enzyme and the peptide was added by Multidrop Combi (Thermo-Fisher). The compounds were allowed to incubate with PRMT5/MEP50 for 30 min at 25 degrees Celsius, then a cocktail (10 ul) containing ^3H-SAM was added to initiate the reaction (final volume=51 ul). […] The assays were stopped by the addition of non-radioactive SAM (10 ul) to a final concentration of 600 uM, which dilutes the ^3H-SAM to a level where its incorporation into the peptide substrate is no longer detectable. 50 ul of the reaction in the 384-well polypropylene plate was then transferred to a 384-well Flashplate and the biotinylated peptides were allowed to bind to the streptavidin surface for at least 1 hour before being washed three times with 0.1% Tween20 in a Biotek ELx405 plate washer. The plates were then read in a PerkinElmer TopCount plate reader to measure the quantity of ^3H-labeled peptide bound to the Flashplate surface, measured as disintegrations per minute (dpm) or alternatively, referred to as counts per minute (cpm).
Where dpm=disintegrations per minute, cmpd=signal in assay well, and min and max are the respective minimum and maximum signal controls.
Where top and bottom are the normally allowed to float, but may be fixed at 100 or 0 respectively in a 3-parameter fit. The Hill Coefficient normally allowed to float but may also be fixed at 1 in a 3-parameter fit. Y is the % inhibition and X is the compound concentration.
What is called pIC50 is the IC50 on a negative log10 scale, so that one unit is a factor of ten. As to `CN(CCNCc1ccccc1)C[C@H]1O[C@@H](n2cnc3c(N)ncnc32)[C@H](O)[C@@H]1O` [Compound 12-1], the pIC50 is 6.00 to 7.00.

In the case of `CN(CCNCc1ccc(Cl)c(Cl)c1)C[C@H]1O[C@@H](n2cnc3c(N)ncnc32)[C@H](O)[C@@H]1O` [Compound 13-1], the pIC50 is 6.00 to 7.00. Then `O=C(CC1NC(N2CCc3ccccc3C2)=NC1=O)Nc1ccccc1` (stereo not drawn) [Compound 13-14], with 5.00 to 6.00; and `CN(CCNCc1ccco1)C[C@H]1O[C@@H](n2cnc3c(N)ncnc32)[C@H](O)[C@@H]1O` [Compound 14-1], with 6.00 to 7.00. As for `CCN1CCN(C2=NC(=O)C(CC(=O)Nc3ccc(C(C)=O)cc3)N2)CC1` (stereo not drawn) [Compound 14-14], the pIC50 is 5.00 to 6.00. Next, `CN(CCNCc1ccccc1F)C[C@H]1O[C@@H](n2cnc3c(N)ncnc32)[C@H](O)[C@@H]1O` [Compound 15-1]: > 7.00; `CCOc1ccc(NC(=O)CC2NC(N3CCN(c4ccccc4F)CC3)=NC2=O)cc1` (stereo not drawn) [Compound 15-14]: 5.00 to 6.00. `CN(CCNCc1ccc(F)cc1)C[C@H]1O[C@@H](n2cnc3c(N)ncnc32)[C@H](O)[C@@H]1O` [Compound 16-1]: the pIC50 is > 7.00.

As to `CC(C)c1ccc(NC(=O)CC2NC(N3CCN(c4ccccn4)CC3)=NC2=O)cc1` (stereo not drawn) [Compound 16-14], the pIC50 was 5.00 to 6.00. Regarding `CCN(CCN(C)C[C@H]1O[C@@H](n2cnc3c(N)ncnc32)[C@H](O)[C@@H]1O)Cc1ccncc1` [Compound 17-1], the pIC50 is > 7.00. Consider `CCOC(=O)c1ccc(NC(=O)CC2NC(N3CCN(c4ccccn4)CC3)=NC2=O)cc1` (stereo not drawn) [Compound 17-14], for which the pIC50 was 5.00 to 6.00. Next, `CC(NCCN(C)C[C@H]1O[C@@H](n2cnc3c(N)ncnc32)[C@H](O)[C@@H]1O)c1ccc(Br)cc1` (stereo partly drawn) [Compound 18-1]: > 7.00.

In the case of `O=C(CC1NC(N2CCN(c3ccccc3)CC2)=NC1=O)Nc1ccccc1` (stereo not drawn) [Compound 18-14], the pIC50 was 5.00 to 6.00.

`CN(CCNCc1ccc(Cl)cc1F)C[C@H]1O[C@@H](n2cnc3c(N)ncnc32)[C@H](O)[C@@H]1O` [Compound 19-1]: the pIC50 is 6.00 to 7.00. Then `CCc1ccc(NC(=O)CC2NC(N3CCN(CC)CC3)=NC2=O)cc1` (stereo not drawn) [Compound 19-14], with 5.00 to 6.00; and `COc1cccc(CN(C)CCN(C)C[C@H]2O[C@@H](n3cnc4c(N)ncnc43)[C@H](O)[C@@H]2O)c1` [Compound 20-1], with 6.00 to 7.00. Then `COc1ccc(N2CCN(C3=NC(=O)C(CC(=O)Nc4ccc(C(C)=O)cc4)N3)CC2)cc1` (stereo not drawn) [Compound 21-14], with 5.00 to 6.00; and `CC(N)CCN(C)C[C@H]1O[C@@H](n2cnc3c(N)ncnc32)[C@H](O)[C@@H]1O` (stereo partly drawn) [Compound 22-1], with 6.00 to 7.00. In the case of `NCCCN(CC[C@H](N)C(=O)O)C[C@H]1O[C@@H](n2cnc3c(N)ncnc32)[C@H](O)[C@@H]1O` [Compound 23-1], the pIC50 is > 7.00.

Take `Cc1ccc(NC(=O)CC2NC(N3CCc4ccccc4C3)=NC2=O)cc1` (stereo not drawn) [Compound 23-14]: the pIC50 was 5.00 to 6.00. For the compound `NCCCCN(CC[C@H](N)C(=O)O)C[C@H]1O[C@@H](n2cnc3c(N)ncnc32)[C@H](O)[C@@H]1O` [Compound 24-1], the pIC50 was > 7.00.

In the case of `CCOC(=O)c1ccc(NC(=O)CC2NC(N3CCN(C)CC3)=NC2=O)cc1` (stereo not drawn) [Compound 24-14], the pIC50 is 4.30 to 5.00.

`CC(C)N(CCCN)C[C@H]1O[C@@H](n2cnc3c(N)ncnc32)[C@H](O)[C@@H]1O` [Compound 25-1]: the pIC50 was 6.00 to 7.00. Then `COc1ccc(N2CCN(C3=NC(=O)C(CC(=O)Nc4ccccc4)N3)CC2)cc1` (stereo not drawn) [Compound 25-14], with 4.30 to 5.00; and `CC(C)N(CCN)C[C@H]1O[C@@H](n2cnc3c(N)ncnc32)[C@H](O)[C@@H]1O` [Compound 26-1], with 6.00 to 7.00; and `CC(=O)c1ccc(NC(=O)CC2NC(N3CCN(C)CC3)=NC2=O)cc1` (stereo not drawn) [Compound 26-14], with 4.30 to 5.00.

Regarding `CN(CCN)C[C@H]1O[C@@H](n2cnc3c(N)ncnc32)[C@H](O)[C@@H]1O` [Compound 27-1], the pIC50 is 6.00 to 7.00.
